# From patent EP1675855B1, “4-AMINO-QUINOLINE OUINOLIZIDINYL-AND QUINOLIZIDINYLALKYL-DERIVATIVES WITH ANTIMALARIAL ACTIVITY” (Need Pharmaceuticals S.r.l., priority 2003, dated 2005)
# Columns and labels:
# [1] = system: chloroquine-resistant P. falciparum strains; assay: microbe, parasite or virus in culture; details: Plasmodium falciparum
# Protocol: (§1) The compounds of the invention were tested in vitro on chloroquine-sensitive and chloroquine-resistant strains of P. falciparum. […] Parasites' growth was evaluated with a colorimetric assay for pLDH at 72 hours.
# [2] = system: chloroquine-sensitive P. falciparum strains; assay: microbe, parasite or virus in culture; details: Plasmodium falciparum
# Protocol: as §1
smiles,measurement,setting,value
"CCN(CC)CCCC(C)Nc1ccnc2cc(Cl)ccc12 (centres unmarked) [chloroquine, 7-chloro-4-(4-diethylamino-1-methylbutylamino)quinoline]",IC50,[1],150 to 300 nM
same,IC50,[2],27.8 ± 9 nM
